In ChEMBL document CHEMBL1141145, “A chiral benzoquinolizine-2-carboxylic acid arginine salt active against vancomycin-resistant Staphylococcus aureus” (J Med Chem, 2005):
Values after ≈ are worked out from the molar mass of the structure shown.

Key:
physchem [1] = settings: octanol/water, pH 7.4
physchem [2] = experiment: physchem
physchem [3] = experiment: physchem; remark: listed apart in the source
physchem [4] = settings: octanol/water, pH 2
Mus musculus = experiment: Protection of mice infected with MRSA-32 cell suspension after oral administration of compound; format: functional
Staphylococcus aureus [5] = experiment: Minimum inhibitory concentration against methicillin susceptible Staphylococcus aureus after esterase action in rat serum; format: functional
Staphylococcus aureus [6] = experiment: Minimum inhibitory concentration against methicillin susceptible Staphylococcus aureus before esterase action in rat serum; format: functional
Staphylococcus aureus [7] = experiment: Minimum inhibitory concentration against methicillin susceptible Staphylococcus aureus; format: functional
Staphylococcus aureus [8] = experiment: Minimum inhibitory concentration against vancomycin intermediate Staphylococcus aureus MU 3; format: functional
Staphylococcus aureus [9] = experiment: Minimum inhibitory concentration against vancomycin intermediate Staphylococcus aureus MU 50; format: functional
Staphylococcus aureus [10] = experiment: Minimum inhibitory concentration against vancomycin-resistant Staphylococcus aureus (Hershey); format: functional
Staphylococcus aureus [11] = experiment: microbe, parasite or virus in culture
Staphylococcus aureus [12] = experiment: microbe, parasite or virus in culture; remark: listed apart in the source
Staphylococcus aureus [13] = experiment: microbe, parasite or virus in culture; remark: listed apart in the source
[14] = Mus musculus, MRSA-32, po, read-out: ED50
[15] = Staphylococcus aureus, read-out: MIC

| SMILES | MIC (Staphylococcus aureus [5]) | MIC (Staphylococcus aureus [6]) | ED50 (Mus musculus; [14]) | other results |
| --- | --- | --- | --- | --- |
| C[C@@H]1CN(c2c(F)c(N)c3c(=O)c(C(=O)O)cn(C4CC4)c3c2F)C[C@H](C)N1 [SPARFLOXACIN] | – | – | – | logD (physchem [1]): -0.02; pKa (physchem [2]): 6.43; pKa (physchem [3]): 9.38; logD (physchem [4]): -0.86 |
| C[C@H]1CCc2c(N3CCC(OC(=O)C(C)(C)C)CC3)c(F)cc3c(=O)c(C(=O)O)cn1c23 | 0.25 µg/mL (≈ 0.562 µM) | 0.5 µg/mL (≈ 1.12 µM) | > 100 mg/kg | – |
| C[C@H]1CCc2c(N3CCC(O)CC3)c(F)cc3c(=O)c(C(=O)O)cn1c23.N=C(N)NCCC[C@H](N)C(=O)O (stereo in doubt; 20) | – | – | – | MIC (Staphylococcus aureus [7]): 0.03 µg/mL; ED50 (Mus musculus): >100 mg/kg |
| C[C@H]1CCc2c(N3CCC(O)CC3)c(F)cc3c(=O)c(C(=O)[O-])cn1c23.[K+] | – | – | > 100 mg/kg | MIC (Staphylococcus aureus [7]; [15]): 0.03 µg/mL |
| C[C@H]1CCc2c(N3CCC(OC(=O)[C@@H](N)CCC/N=C(\N)N[N+](=O)[O-])CC3)c(F)cc3c(=O)c(C(=O)O)cn1c23.O=C(O)C(F)(F)F | 0.06 µg/mL | 0.25 µg/mL | > 75 mg/kg | – |
| C[C@H]1CCc2c(N3CCC(O)CC3)c(F)cc3c(=O)c(C(=O)O)cn1c23.N=C(N)NCCC[C@H](N)C(=O)O (stereo in doubt; 19) | – | – | 90.3 mg/kg | MIC (Staphylococcus aureus [7]; [15]): 0.03 µg/mL |
| CCCCCCCCCC(=O)N[C@@H](Cc1c[nH]c2ccccc12)C(=O)N[C@H](CC(N)=O)C(=O)N[C@@H](CC(=O)O)C(=O)N[C@@H]1C(=O)NCC(=O)N[C@@H](CCCN)C(=O)N[C@@H](CC(=O)O)C(=O)N[C@H](C)C(=O)N[C@@H](CC(=O)O)C(=O)NCC(=O)N[C@H](CO)C(=O)N[C@@H]([C@H](C)CC(=O)O)C(=O)N[C@@H](CC(=O)c2ccccc2N)C(=O)O[C@@H]1C | – | – | – | MIC (Staphylococcus aureus [8]): 0.25 µg/mL (≈ 0.154 µM); MIC (Staphylococcus aureus [9]): 0.5 µg/mL (≈ 0.309 µM); MIC (Staphylococcus aureus [10]): 0.5 µg/mL (≈ 0.309 µM); MIC (Staphylococcus aureus [11]): 250 µg/mL (≈ 154 µM); MIC (Staphylococcus aureus [12]): 0.25 µg/mL (≈ 0.154 µM); MIC (Staphylococcus aureus [13]): 0.25 µg/mL (≈ 0.154 µM) |
| CCn1cc(C(=O)O)c(=O)c2cc(F)c(N3CCN(C)CC3)cc21 [PEFLOXACIN] | – | – | – | pKa (physchem [2]): 6.15; pKa (physchem [3]): 9.97 |
| CCn1cc(C(=O)O)c(=O)c2cc(F)c(N3CCNCC3)cc21 [NORFLOXACIN] | – | – | – | logD (physchem [1]): -1; pKa (physchem [2]): 6.54; logD (physchem [4]): -1.46 |
| C[C@H]1CCc2c(N3CCC(OC(=O)C(C)(C)C)CC3)c(F)cc3c(=O)c(C(=O)OCOC(=O)C(C)(C)C)cn1c23 | > 16 µg/mL | > 16 µg/mL | > 150 mg/kg | – |

Further lines, with some results ahead:

| MIC (Staphylococcus aureus [5]) | MIC (Staphylococcus aureus [6]) | SMILES | ED50 (Mus musculus; [14]) | other results |
| --- | --- | --- | --- | --- |
| 2 µg/mL (≈ 4.48 µM) | 8 µg/mL (≈ 17.9 µM) | CCOC(=O)COC(=O)c1cn2c3c(c(N4CCC(O)CC4)c(F)cc3c1=O)CC[C@@H]2C | > 150 mg/kg | – |
| 0.1 µg/mL (≈ 0.194 µM) | 1 µg/mL (≈ 1.94 µM) | C[C@H]1CCc2c(N3CCC(OC(=O)[C@H](N)CCCN=C(N)N)CC3)c(F)cc3c(=O)c(C(=O)O)cn1c23 | > 100 mg/kg | – |
| 0.1 µg/mL (≈ 0.186 µM) | 0.1 µg/mL (≈ 0.186 µM) | CO[C@@H]1C(OC2CCN(c3c(F)cc4c(=O)c(C(=O)O)cn5c4c3CC[C@@H]5C)CC2)O[C@@H](CO)[C@@H](O)[C@@H]1O (single isomer, unassigned) | > 100 mg/kg | – |
| 0.12 µg/mL (≈ 0.254 µM) | 0.5 µg/mL (≈ 1.06 µM) | C[C@H]1CCc2c(N3CCC(O)CC3)c(F)cc3c(=O)c(C(=O)OCCN4CCNCC4)cn1c23 | > 100 mg/kg | – |
| 1 µg/mL (≈ 2.67 µM) | 8 µg/mL (≈ 21.4 µM) | COC(=O)c1cn2c3c(c(N4CCC(O)CC4)c(F)cc3c1=O)CC[C@@H]2C | > 100 mg/kg | – |
